# Laboratory results from US7947733B2, “Phosphorylated pyrone analogs and methods” (Limerick BioPharma, priority 2007, dated 2011).
# Values joined by “and” are separate entries in the source; they are usually repeats but may differ in a detail not shown here. Equal values may be shown once.
# Key:
# rats = assay: Blood glucose levels in rats co-administered with quercetin-3′-O-phosphate and tacrolimus; format: in vivo, rat; settings: for Blood glucose, Mean change from Prograf ® control / Blood glucose, Mean change from Day 1: Q-Phosphate 114 mg/kg + Prograf 0.5 mg/kg i.p.; for Blood glucose, Mean: Q-Phosphate 114 mg/kg i.p. Day 11 to Day 25 + Prograf 0.5 mg/kg i.p., 5 rats; for Blood glucose, individual rats: Q-Phosphate 114 mg/kg i.p. once daily Day 11 to Day 25 + Prograf 0.5 mg/kg i.p. Day 1 to Day 25
# Procedure: One set of 5 rats is treated from day 1 to day 25 with inert vehicle 2 intraperitoneally and treated from day 11 to day 25 with inert vehicle 1 intraperitoneally. […] A third set 5 of rats is treated from day 1 to day 25 with tacrolimus (Prograf®) intraperitoneally at 0.5 mg/kg, and treated from day 11 to day 25 intraperitoneally with quercetin-3′-O-phosphate (Q-Phosphate) at 114 mg/kg. The blood glucose level in the rats is measured on days 1, 10, 15, 20, and 25.
# [1] = tested on: ATPase, Na+/K+, Heart, Pig; assay: Secondary toxicity screen (MDS Pharma Services), enzyme assay; format: biochemical; settings: 10 μM
# Procedure: (§1) A secondary pharmacological screening of molecules of interest at a fixed concentration is often practiced in the pharmaceutical industry in order to evaluate the effect of the compound on secondary targets that could result in untoward toxicity in-vivo. These secondary screens are well known in the art and can be carried out by labs which specialize in these tests such as MDS-Panlabs and CEREP. A secondary toxicity screen is performed with Quercetin-3′-O-phosphate at a concentration of 10 μM against 122 targets in enzyme, radioligand binding, and cellular assays by MDS Pharma Services by methods well known in the art. Inhibition is found in only the following targets (percent inhibition at 10 μM in parentheses): ATPase, Na+/K+, Heart, Pig (65%), Nitric Oxide Synthase, Endothelial (eNOS) (72%), Protein Tyrosine Kinase, FGFR2 (94%), Protein Tyrosine Kinase, FGFR1(96%), Protein Tyrosine Kinase, Insulin Receptor (91%), Protein Tyrosine Kinase, (82%), Protein Tyrosine Kinase, ZA70 (ZAP-70) (74%), UDP Glucuronosyltransferase, UGT1A1 (52%), Adenosine A1 (50%), Adrenergic α2A (57%), Dopamine D47 (51%), Peripheral Benzodiazepine Receptor (PBR) (53%), Transporter, Monoamine rabbit (68%), Serotonin (5-Hydroxytryptamine) 5-HT1A (62%).
# AdenosineA1 = molecular target: T1, AdenosineA1 (Homo sapiens, UniProt P30542); assay: GTPγS functional assay; format: biochemical; settings: 10 μM
# T1 sequence (P30542 1-326): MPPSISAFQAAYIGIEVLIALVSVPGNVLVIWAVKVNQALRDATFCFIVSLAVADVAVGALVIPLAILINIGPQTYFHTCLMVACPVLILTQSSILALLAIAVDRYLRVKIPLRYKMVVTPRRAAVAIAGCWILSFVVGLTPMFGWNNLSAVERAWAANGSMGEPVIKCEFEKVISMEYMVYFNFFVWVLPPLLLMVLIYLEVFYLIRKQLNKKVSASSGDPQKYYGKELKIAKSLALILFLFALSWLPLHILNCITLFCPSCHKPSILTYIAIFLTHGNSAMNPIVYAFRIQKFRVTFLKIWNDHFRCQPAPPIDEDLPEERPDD
# Procedure: (§2) The compound is additionally tested in AdenosineA1, AdrenergicA2A, DopamineD25, Histamine H1-, and μ-Opiate GTPγS functional assays using a concentration of 10 μM.
# AdrenergicA2A = molecular target: T2, AdrenergicA2A (Homo sapiens, UniProt P08913); assay: GTPγS functional assay; format: biochemical; settings: 10 μM; potentially inverse agonist
# T2 sequence (P08913 1-465): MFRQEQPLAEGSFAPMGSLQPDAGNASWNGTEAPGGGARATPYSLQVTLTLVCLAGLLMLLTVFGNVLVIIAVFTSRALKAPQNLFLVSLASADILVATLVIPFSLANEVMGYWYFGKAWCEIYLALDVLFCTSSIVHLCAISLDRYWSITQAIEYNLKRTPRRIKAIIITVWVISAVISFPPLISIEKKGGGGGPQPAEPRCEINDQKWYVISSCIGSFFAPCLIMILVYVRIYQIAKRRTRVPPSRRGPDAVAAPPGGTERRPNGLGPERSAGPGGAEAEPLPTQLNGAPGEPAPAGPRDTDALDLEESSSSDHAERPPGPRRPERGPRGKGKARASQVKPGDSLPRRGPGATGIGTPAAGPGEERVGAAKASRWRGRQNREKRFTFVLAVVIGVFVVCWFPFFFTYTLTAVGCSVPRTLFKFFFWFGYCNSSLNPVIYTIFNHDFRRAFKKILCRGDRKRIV
# Procedure: as §2
# [2] = Secondary toxicity screen, overall finding; settings: 10 μM against 122 targets
# Procedure: as §1
# [3] = Stability of Quercetin-3′-O-phosphate in water; format: physicochemical; settings: water at pH 8, 24 hours, ambient temperature
# Procedure: Quercetin-3′-O-phosphate is dissolved in water at about pH 8.
# [4] = Solubility of quercetin-3′-O-phosphate in water; format: physicochemical; settings: about pH 8 (about 4 g in 50 mL)
# Procedure: The resultant solid from concentration of the decantate is added acetonitrile (500 mL) followed by water (50 mL) then 1N hydrochloric acid (approx. 20 mL) until a pH of about 5 is achieved. The solution is concentrated to a volume of about 120 mL. The residue is purified with a 600 g, C-18 reverse phase column with 60 mL injections in a gradient. The gradient is 100% water (1 L), 9:1 water:MeOH (1 L), 8:2 water:MeOH (1 L), 7:3 water:MeOH (1 L), 1:1 water:MeOH. The desired product begins to elute after about 500 mL of 1:1 water:MeOH. The fractions are combined and concentrated. The residue is dissolved in water (40 mL) and solid potassium carbonate (approx. 3 g) is added until pH=8. The pH is adjusted to about 2 with 50% sulfuric acid resulting in the formation of a precipitate. The solid is collected, which contained approximately 10% TEA. The solid is suspended in water (50 mL), and the pH is adjusted to about 8 with solid potassium carbonate to produce a yellow solution. The resultant yellow solution is treated dropwise with 50% sulfuric acid until a pH of about 2 is reached, resulting in the precipitation of a solid. The solid is collected and slurried in water (75 mL). The solid is collected and dried giving 4 g, representing 12% of quercetin-3′-O-phosphate. […]
smiles,measurement,setting,value
O=c1c(O)c(-c2ccc(O)c(OP(=O)(O)O)c2)oc2cc(O)cc(O)c12 [Quercetin-3′-O-phosphate],"Blood glucose, Mean change from Prograf ® control",rats; Day 1,+0.02 g/l
same,"Blood glucose, Mean",rats; Day 1,1.29 g/L
same,"Blood glucose, individual rats",rats; Day 1,1.18 g/L and 1.19 g/L and 1.41 g/L and 1.36 g/L and 1.30 g/L
same,"Blood glucose, Mean change from Day 1",rats; Day 10,+0.65 g/l
same,"Blood glucose, Mean change from Prograf ® control",rats; Day 10,+0.45 g/l
same,"Blood glucose, Mean",rats; Day 10,1.94 g/L
same,"Blood glucose, individual rats",rats; Day 10,1.50 g/L and 2.41 g/L and 2.19 g/L and 1.51 g/L and 2.10 g/L
same,"Blood glucose, Mean change from Day 1",rats; Day 15,+0.99 g/l
same,"Blood glucose, Mean change from Prograf ® control",rats; Day 15,-0.26 g/L
same,"Blood glucose, Mean",rats; Day 15,2.28 g/L
same,"Blood glucose, individual rats",rats; Day 15,2.07 g/L and 2.90 g/L and 3.16 g/L and 1.83 g/L and 1.42 g/L
same,"Blood glucose, Mean change from Day 1",rats; Day 20,+1.55 g/l
same,"Blood glucose, Mean change from Prograf ® control",rats; Day 20,-0.09 g/L
same,"Blood glucose, Mean",rats; Day 20,2.84 g/L
same,"Blood glucose, individual rats",rats; Day 20,1.99 g/L and 3.28 g/L and 3.67 g/L and 3.58 g/L and 1.67 g/L
same,"Blood glucose, Mean change from Day 1",rats; Day 25,+0.87 g/l
same,"Blood glucose, Mean change from Prograf ® control",rats; Day 25,-0.39 g/L
same,"Blood glucose, Mean",rats; Day 25,2.16 g/L
same,"Blood glucose, individual rats",rats; Day 25,2.34 g/L and 2.54 g/L and 2.04 g/L and 2.67 g/L and 1.23 g/L
same,effect on tacrolimus induced hyperglycemia,"rats; rats, Q-Phosphate 114 mg/kg i.p. with tacrolimus 0.5 mg/kg",can attenuate tacrolimus induced hyperglycemia
same,percent inhibition,[1],65%
same,antagonist activity,AdenosineA1,48%
same,inhibition in GTPγS functional assay,AdrenergicA2A,marked negative inhibition
same,toxicity properties (findings of the toxicology screen),[2],low toxicity properties
same,degradation seen by NMR,[3],no degradation
same,solubility,[4],≥ 80 mg/mL
